Laboratory results as given in paper PMC7562719, “Discovery of a CNS penetrant small molecule SMN2 splicing modulator with improved tolerability for spinal muscular atrophy” (Scientific Reports, 2020).

Columns and labels:
Format in all cases: cell-based, human
FOXM1a = test: qPCR of FOXM1a variant in GM03813 fibroblasts; conditions: 24 h, 200% total target mRNA increase, 95% CI in brackets
Method: (§1) GM03813 fibroblasts, GM24468-derived MNs, NRK-49F, MDCK, CV-1, or NCMDF cells were plated at a density of 0.5 or 1.5 × 10^4, 4 × 10^4, 5 × 10^3, 5 × 10^3, 8 × 10^3, or 6 × 10^3 cells/well on 96-well plates, respectively. After approximately 6 h, the medium was added with the same volume of culture medium containing each compound at the concentration of 0.06, 0.2, 0.6, 0.2, and 6 µM. The final concentration of DMSO was adjusted to 0.1% in culture condition.
(§2) All cells were treated with above compounds for 24 h and washed once with Dulbecco’s Phosphate-Buffered Saline without Ca and Mg [D-PBS (–)] (Wako or Nakarai Tesque). In case of using GM03813 or GM24468-derived MNs, cell lysis and reverse transcription were carried out using SuperPrep Cell Lysis & RT Kit for qPCR in accordance with manufacturer’s recommendations (Toyobo, Japan). qPCR was performed using THUNDERBIRD Probe qPCR Mix (Toyobo). The final concentrations of primers and probes were adjusted to 0.4 µM and 0.15 µM, respectively (Supplementary Table 1). Cycle conditions were as follows; 95 °C for 1 min; followed by 40 cycles of denaturation at 95 °C for 15 s; annealing and elongation at 60 °C for 1 min in the ViiA7 RT-PCR system (Thermo Fisher Scientific). The copy numbers of each target were normalized to those of GAPDH.

FL-SMN2 mRNA = test: qPCR of FL-SMN2 transcripts in SMA type II fibroblasts (GM03813); conditions: 24 h, 50% total FL-SMN2 mRNA increase, normalized to GAPDH, 95% CI in brackets
Method: as §1, §2

FOXM1b = test: qPCR of FOXM1b/c variant in GM03813 fibroblasts; conditions: for Selectivity FOXM1b /FL-SMN2: EC50 of FOXM1b divided by EC1.5× of FL-SMN2; for EC50: Homo sapiens, Fibroblast, GM03813 fibroblasts, 24 h, 50% total target mRNA reduction, 95% CI in brackets
Method: as §1, §2

HTT mRNA = test: qPCR of HTT transcripts in GM03813 fibroblasts; conditions: for Selectivity HTT /FL-SMN2: EC50 of HTT divided by EC1.5× of FL-SMN2; for EC50: Homo sapiens, Fibroblast, GM03813 fibroblasts, 24 h, 50% total HTT mRNA reduction, 95% CI in brackets
Method: as §1, §2
In order to elucidate splicing pattern of cryptic GALC and HTT transcripts, GM03813 cells were seeded at 5 or 15 × 10^3 cells/well in 96-well plates and incubated with TEC-1 or SMN-C3 (0.03, 0.1, 0.3, 0.1, 1 or 3 µM) for 6 h under final concentration of 200 µg/ml CHX. For FOXM1, GM03813 fibroblasts were plated at 1.5 × 10^4 cells/well in 96-well plate and incubated with TEC-1, SMN-C3 or risdiplam (0.03, 0.1, 0.3 and 1 µM) for 24 h.
GM03813 fibroblasts and GM24468-derived MNs were seeded at 1.5 × 10^4 and 4 × 10^4 cells/well in 96-well plates and were treated with TEC-1 or SMN-C3 for 72 h at the concentration of 0.01, 0.03, 0.1, 0.3, 1, or 3 µM. After 72 h exposure of compound, GM24468 derived MNs and GM03813 fibroblasts were washed once with D-PBS (-), lysed with RIPA buffer (Wako) containing cOmplete (Sigma-Aldrich) and PhosSTOP (Sigma-Aldrich). The lysates were spun at 15,000 rpm for 15 min at 4 °C, and the supernatants were collected. The protein concentration was quantified with BCA kit (Wako). The lysates, adjusted to have the same protein amount, were mixed with NuPAGE LDS sample buffer containing DTT and heated at 95 °C for 5 min. Except for HTT detection, each sample (2 µg total protein/lane) was loaded Perfect NT Gel 7.5–15% gel (DRC, Japan) and run at 150 V for 60–70 min with Tris/glycine/SDS running buffer (BIO-RAD, USA). The proteins were transferred from the gel to Immobilon-P PVDF Membrane (Millipore, USA) with a transfer solution comprising 10% methanol and 1 × Novex Tris-glycine transfer buffer at 25 V for 180–240 min using Criterion blotter (BIO-RAD). In the case of HTT detection, each sample (2 µg total protein/lane) was loaded to Perfect NT Gel 7.5–15% gel and run at 150 V for 60–70 min with NuPAGE Tris–Acetate SDS Running Buffer. The proteins were transferred with a transfer solution comprising 10% methanol and 1 × Novex Tris-glycine transfer buffer at 25 V for 960 min using Criterion blotter. The membranes were blocked with Pierce Protein free T20 blocking reagent for 1 h and subsequently incubated with primary antibodies diluted with Can Get Signal Solution 1 (Toyobo) at room temperature for 1 h. Anti-SMN monoclonal antibody (MoAb)[15] […]

Hs683 cells = test: psychosine/sphingosine ratio in Hs683 cells by LC/MS/MS; conditions: 3000 nM, 12 days, normalized by sphingosine
Method: Hs683 cells were seeded at 1.5 × 10^5 cells/well in 6-well plates and were treated with TEC-1 or SMN-C3 for 12 days. The sample was extracted with EtOH and dried under nitrogen spray. Pellet was completely re-dissolved in EtOH using vortex and ultrasonication. The resulting sample was centrifuged at 15,000 rpm for 5 min at 4 °C. Analytes were separated from the supernatant and quantified by LC/MS/MS as reported by Boutin et al.[48].

GALC mRNA = test: qPCR of GALC transcripts in GM03813 fibroblasts; conditions: for Selectivity GALC /FL-SMN2: EC50 of GALC divided by EC1.5× of FL-SMN2; for EC50: Homo sapiens, Fibroblast, GM03813 fibroblasts, 24 h, 50% total GALC mRNA reduction, 95% CI in brackets
Method: as §1, §2

Compound | EC3.0× FOXM1a (FOXM1a) | EC1.5× FL-SMN2 (FL-SMN2 mRNA) | Selectivity FOXM1b /FL-SMN2 (FOXM1b) | EC50 (FOXM1b) [nM] | Selectivity HTT /FL-SMN2 (HTT mRNA) | EC50 (HTT mRNA) [nM] | increase in psychosine compared to the control (Hs683 cells) | Selectivity GALC /FL-SMN2 (GALC mRNA) | EC50 (GALC mRNA) [nM] | inclusion of the HTT cryptic exon or reduction of HTT at the mRNA and full-length protein levels (HTT mRNA; GM03813 cells)
CCN1CCC(c2cc(C)c3nc(-c4cc5c(C)nc(C)cn5n4)cc(=O)n3c2)CC1 [SMN-C3, reference compound] | 280.3 (211.4–377.7) nM | 122.1 (74.5–221.7) nM | 8 | 945 | 4 | 547 | approximately 22 fold | 4 | 459 | 
Cc1cn2nc(-c3nc4ccc(N5CCN(C)CC5)cc4c(=O)[nH]3)cc2c(C)n1 [TEC-1, 2-(4,6-dimethylpyrazolo[1,5-a]pyrazin-2-yl)-6-(4-methylpiperazin-1-yl)quinazolin-4(3H)-one] | 1096.8 (809.7–1552.2) nM | 49.1 (22.7–109.4) nM | > 61 | > 3000 | > 61 | > 3000 | 1.9 fold | > 61 | > 3000 | did not substantially impact
